Assays:
[1] = test system: 4T1 cells; assay: Spontaneous lung metastasis model, orthotopic 4T1 breast cancer; format: in vivo, BALB/c mice
Procedure: FIGS. 22A-22C. Systemic administration of 1V270 inhibits lung metastasis in the 4T1 murine syngeneic breast cancer model in a CD8^+ T cell dependent manner. (A) Protocol of spontaneous metastasis model. 4T1 cells (5×10^5) were inoculated in both 4th mammary pads of Balb/c mice (n=13/group) 1V270 (20, 80, 04 200 μg/injection) was administered on days 7, 10, 14, 17, 21 and 24. (B) The numbers of lung nodules were counted by staining with India ink after harvesting lungs on day 27. (C) The mice (n=6-15/group) were orthotopically implanted with 4T1 cells and i.p. treated with 1V270 (20 μg/injection) as shown in FIG. 1A. CD8^+ cells were depleted by administration of anti-CD8 or isotype mAbs on days 5, 8, 11, 16, 19, and 23. The numbers of lung nodules were counted on day 27. Each dot indicates an individual mouse and horizontal and vertical bars indicate means±SEM. Data shown are pooled from 2 independent experiments. *P<0.05, **P<0.01 by Kruskal-Wallis test with Dunn's post hoc test comparing treatment groups against vehicle group. n.s; statistically not significant.
FIGS. 28A-28C. […] Tumor growth was measured with a caliper and calculated using the formula: volume (mm^3)=(width)^2×length/2. […]
In the spontaneous metastasis model, othotopically implanted tumor cells spontaneously form lung metastases within three weeks after implantation. […] Tumor length and width were recorded, and tumor volumes were calculated using the formula: volume (mm^3)=(width)^2×length/2. […] On day 21, mice were euthanized and tumor nodules in lungs were counted as described above. […] Tumor length and width were recorded, and tumor volumes were calculated similar with
4T1 cells (5×10^5) were inoculated into the 4th mammary pads on day 0, and 1V270 (20, 80, or 200 μg/injection) was injected intraperitoneally (i.p.) twice a week for three weeks, starting on day 7 (FIG. 22A). Both the primary tumor volumes and the numbers of lung metastases were evaluated on day 27. […]

[2] = test system: 4T1 cells; assay: Secondary (orthotopic) 4T1 challenge after 1V270 therapy; format: in vivo, BALB/c mice
Source text: FIGS. 24A-24G. Tumor infiltrating T cells in 1V270 treated mice show high clonalities and increased frequency of intra- and inter-individual common clones (A) Experimental protocols of the secondary challenge studies. Two groups of BALB/c mice (n=5/group) were i.p, treated with 1V270. One cohort of mice was i.v. injected with 4T1-GLF cells (2×10^4) on day 0 and tumor growth in the lungs was monitored by IVIS on day 20. […] Native BALB/c mice served as controls. 4T1 cells were orthotopically inoculated on day 21. (B) Tumor growth was measured with a caliper and calculated using the formula: volume (mm3)=(width)2×length/2. (C) TILs s were isolated from the secondarily challenged tumor on day 39 and stained for CD8^+ T cells (CD3^+CD8^+) and PD-1. The numbers of tumor-infiltrating cos• T cells were expressed per tumor volume (mm^3). Data are representative of 2 independent experiments showing similar results. Results were analyzed by the Mann-Whitney U test comparing the 1V270 treatment groups against the vehicle treated group. **P<0.01. (D·G) TCR repertoire of CD8^+ T cells from TILs s and splenocytes were examined. (D) The clonality index (1-normalized Shannon index) of CD8^+ T cells infiltrating to the left side of the secondarily challenged tumor was plotted against tumor volume in the tumor exposed mice. Correlation between the clonality index and the tumor volume was evaluated by Pearson's method (R^2=0.97, p<0.05).
FIGS. 26A-26D. Intranasally administered 1V270 inhibits pulmonary colonization in experimental metastasis models (A) Protocol for testing the therapeutic efficacy of i.n. treatment with 1V270 in IV metastasis model. BALB/c mice (n=6-8/group) were i.n. administered with 1V270 (20 or 200 μg) or vehicle on days −3, −1, 3, 7, and 10. 4T1 cells were v. injected on day 0. (B) The numbers of lung nodules were counted on Day 21. *P<0.05 calculated by Kruskal-Wallis test with Dunn's post hoc test. (C) Intranasal 1V270 therapy attenuated the growth of secondarily challenged tumors. BALB/c mice (n=S) were i.n. treated with 200 μg 1V270 on days −3, −1, 3, 7 and 10. 4T1 cells were injected on day 0. On day 21, the surviving mice were orthotopically inoculated with 4T1 cells and tumor growth was monitored. The mice treated with 1V270 without i.v. tumor cell injection served as controls. (D) TILs were isolated from the secondarily challenged tumor, and the numbers of CD8^+ T cells and PD-1 expressing CD8^+ T cells were analyzed by flow cytometric assay. Data were analyzed by the Mann-Whitney U test comparing two groups. *P<0.05. Data are representative of 2 independent experiments showing similar results.
In the spontaneous metastasis model, othotopically implanted tumor cells spontaneously form lung metastases within three weeks after implantation. 5×10^5 4T1 cells were inoculated in both sides of the 4th mammary pads of female BALB/c mice. Tumor length and width were recorded, and tumor volumes were calculated using the formula: volume (mm^3)=(width)^2×length/2. On day 28, mice were euthanized and the lungs were stained with intratracheally injected India ink and destained in Fekete's solution to count tumor nodules. In the experimental metastasis model, 2×10^4 4T1 cells were i.v. injected. On day 21, mice were euthanized and tumor nodules in lungs were counted as described above. In the secondary challenge experiment, 1V270 treated-mice without tumor signals in the lungs on day 21 of the experimental metastasis protocol were included. 5×10^5 4T1 cells were inoculated in both sides of the 4th mammary p ads. Tumor length and width were recorded, and tumor volumes were calculated similar with
To validate that 1V270 therapy induced tumor-specific adaptive immune responses, we monitored the growth of secondarily challenged tumors following prior 1V270 treatment. The mice treated with 1V270 using the IV metastasis protocol were orthotopically re-challenged with 4T1 cells on day 21 (FIG. 24A). […]

[3] = test system: primary tumor; details: cited from earlier work
[4] = intranasal 1V270, tumor-exposed vs no tumor exposure or naive

## CCCCCCCCC=CCCCCCCCC(=O)OCC(COP(=O)(O)OCCNC(=O)c1ccc(Cn2c(=O)[nH]c3c(N)nc(OCCOC)nc32)cc1)OC(=O)CCCCCCCC=CCCCCCCCC (stereo not drawn) [1V270]
[1]; 1V270 20, 80 or 200 μg/injection i.p. from day 7
  tumor growth at the primary sites of implantation: did not retard tumor growth at the primary sites of implantation
[1]; 1V270 20, 80 or 200 μg/injection i.p. twice a week for three weeks from day 7, evaluated day 27
  number of lung metastases: decreased the number of lung metastases
[1]; anti-CD8 mAb depletion, 1V270 20 μg/injection i.p.
  numbers of lung nodules after CD8+ cell depletion: increased significantly
[2]; 1V270-treated tumor-exposed vs 1V270-treated no-tumor exposed mice
  numbers of CD8+ T cells in TILs: Three-fold higher
[2]; i.p. 1V270-treated and tumor-exposed mice vs naive or no-tumor exposed mice
  growth of secondarily challenged tumor: significantly impaired
[2]; i.p. 1V270-treated no-tumor exposed mice vs naive mice
  growth of secondarily challenged tumor: no difference in the tumor growth
[2]; intranasal 1V270, tumor-exposed mice
  re-challenged tumor growth: significantly inhibited
[2]; [4]
  number of CD8+ T cells in TILs: A higher number
  number of PD-1+CD8+ T cells in TILs: A higher number
[2]; secondarily challenged tumor
  CD8+ T cells in TILs positive for PD-1: more than 80%
[3]; intratumoral administration
  primary tumor growth: inhibits primary tumor growth
[3]; local (intratumoral) treatment
  systemic cytokine induction: without causing systemic cytokine induction

From patent US20200087625A1, “METHODS FOR ISOLATING, EXPANDING AND ADMINISTERING CANCER SPECIFIC CD8+ T CELLS” (priority 2017, published 2020)
